Data from patent US20050267120A1 (Boehringer Ingelheim International GmbH, priority 2004, published 2005).
pIC50: −log10 of the molar value.

Tests used:
hMCH-1R = molecular target: T1, hMCH-1R (Homo sapiens, UniProt Q99705); assay: MCH-1 receptor binding test; conditions: 125I-MCH binding, membranes of CHO/Galpha16 cells stably transfected with hMCH-1R
T1 construct: expressed in transfected cells; host or cells: CHO/Galpha16 cells (membrane preparation)
Protocol: 200 μL of this membrane fraction (contains 1 to 3 μg of protein) are incubated for 60 minutes at ambient temperature with 100 pM of ^125I-tyrosyl melanin concentrating hormone (^125I-MCH commercially obtainable from NEN) and increasing concentrations of the test compound in a final volume of 250 μL. After the incubation the reaction is filtered using a cell harvester through 0.5% PEI treated fiberglass filters (GF/B, Unifilter Packard). The membrane-bound radioactivity retained on the filter is then determined after the addition of scintillator substance (Packard Microscint 20) in a measuring device (TopCount of Packard). […] The analysis of the concentration binding curve is carried out on the assumption of one receptor binding site.

[1] = long term trials; cited from earlier work
rats = conditions: cited from earlier work

T1 sequence (Q99705 whole entry): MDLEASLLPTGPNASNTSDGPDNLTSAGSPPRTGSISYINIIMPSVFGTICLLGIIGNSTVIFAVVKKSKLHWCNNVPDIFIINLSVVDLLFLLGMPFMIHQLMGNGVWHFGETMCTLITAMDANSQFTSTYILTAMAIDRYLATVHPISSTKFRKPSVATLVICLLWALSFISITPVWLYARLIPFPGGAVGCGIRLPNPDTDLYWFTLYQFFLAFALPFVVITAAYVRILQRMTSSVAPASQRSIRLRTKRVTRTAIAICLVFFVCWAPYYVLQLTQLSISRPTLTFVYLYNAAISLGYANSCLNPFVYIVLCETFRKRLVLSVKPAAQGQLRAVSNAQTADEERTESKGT

SMILES | pIC50 (hMCH-1R) | body weight change [1] | effects in behavioral experiments (rats)
OC[C@@H]1CCCN1CC1CCc2cc(C#Cc3ccc(-c4ccc(Cl)cc4)cn3)ccc2O1 (stereo partly shown) [Example 1.1] | 8.22 | – | –
CC1CCN(Cc2cc(=O)c3cc(C#Cc4ccc(-c5ccc(Cl)cc5)cn4)ccc3o2)CC1 [Example 2.1, 6-[5-(4-chlorophenyl)pyridin-2-ylethynyl]-2-(4-methylpiperidin-1-ylmethyl)-1-benzopyran-4-one] | 8.52 | – | –
COCC1=C(C(=O)OC)[C@H](c2ccc(F)c(F)c2)N(C(=O)NCCCN2CCC(c3cccc(NC(C)=O)c3)CC2)C(=O)N1 [SNAP-7941] | – | lose significant amounts of weight | anxiolytic and antidepressant effects
